For 25 molecules, IC50 results are on record in US10519177B2, “Heterocyclic compounds and uses thereof” (Plexxikon Inc., priority 2013, dated 2019).

The structures appear in SMILES notation.

In assay [1] the target is BRD4-BD12 (1-477) (Homo sapiens (Human), UniProt O60885). The experiment in a line: Alphascreen binding assay BRD4-BD12. Conditions: BRD4(1 2) H4; read-out: Biochemical activity (IC50 μM) BRD4(1 2) H4. Summed up: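 In this competition format, compounds displace a biotinylated tetra-acetyl H4 peptide from E. coli-expressed human BRD4 bromodomain constructs captured on nickel chelate beads. The reaction runs at pH 7.5 with 2 mM DTT and detergent for 1 h at room temperature before a 30 min bead step.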
For orientation: Bead proximity is the source of the signal in Alpha formats.

Assay [2] deals with MV-4-11 cells. Briefly: Oncology cell growth assay MV-4-11 (CellTiter Glo). The assay is classed as cell-based. Conditions: Homo sapiens, MV4-11, 72 h; MV-4-11, 3d growth; read-out: Cell activity (IC50 μM) MV-4-11 3d-Growth. Summed up:
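Growth read by CellTiter Glo luminescence after 72 h compound treatment of MLL-AF4-bearing MV-4-11 cells (3000/well). Titration: 8 points, 1:3 steps, maximum 10 μM, 0.2% DMSO final. Data normalized to DMSO wells, four-parameter fit gives pIC50.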

For assay [3], the system named is bromodomain. Briefly: at least one of the bromodomain cell assays of Example 57. Conditions: at least one of the bromodomain cell assays described in Example 57; read-out: IC50 in at least one of the bromodomain cell assays. It is filed as cell-based.

Regarding `Cc1noc(C)c1-c1cnc2c(-c3cnn(CC(F)(F)F)c3)cn([C@@H](C)c3ccccn3)c2c1` [P-0512, 3,5-dimethyl-4-[1-[(1S)-1-(2-pyridyl)ethyl]-3-[1-(2,2,2-trifluoroethyl)pyrazol-4-yl]pyrrolo[3,2-b]pyridin-6-yl]isoxazole], the figures for the half-inhibitory concentration (IC50) in assay [1], in assay [2] and in assay [3] were below 1 µM, below 1 µM and below 10000 nM, respectively.
With `Cc1noc(C)c1-c1cnc2c(-c3cnn(CC(F)(F)F)c3)cn([C@H](C)c3ccccn3)c2c1` [P-0513, 3,5-dimethyl-4-[1-[(1R)-1-(2-pyridyl)ethyl]-3-[1-(2,2,2-trifluoroethyl)pyrazol-4-yl]pyrrolo[3,2-b]pyridin-6-yl]isoxazole], the IC50 was below 1 µM in assay [1], below 1 µM in assay [2] and below 10000 nM in assay [3].
Take `Cc1noc(C)c1-c1cnc2c(-c3cnn(C(F)F)c3)cn([C@@H](C)c3ccccn3)c2c1` [P-0514, 4-[3-[1-(difluoromethyl)pyrazol-4-yl]-1-[(1S)-1-(2-pyridyl)ethyl]pyrrolo[3,2-b]pyridin-6-yl]-3,5-dimethyl-isoxazole]: the 50% inhibitory concentration (IC50) in assay [1] was below 1 µM; in assay [2] it was below 1 µM; in assay [3], below 10000 nM.
With `Cc1noc(C)c1-c1cnc2c(-c3cnn(C(F)F)c3)cn([C@H](C)c3ccccn3)c2c1` [P-0515, 4-[3-[1-(difluoromethyl)pyrazol-4-yl]-1-[(1R)-1-(2-pyridyl)ethyl]pyrrolo[3,2-b]pyridin-6-yl]-3,5-dimethyl-isoxazole], the IC50 in assay [1] is below 1 µM; in assay [2], below 1 µM; in assay [3], below 10000 nM.
Turning to `Cc1noc(C)c1-c1cnc2c(-c3cnn(C)c3)cn([C@@H](C)c3ccccn3)c2c1` [P-0516, 3,5-dimethyl-4-[3-(1-methylpyrazol-4-yl)-1-[(1S)-1-(2-pyridyl)ethyl]pyrrolo[3,2-b]pyridin-6-yl]isoxazole], the results for the IC50 in assay [1], in assay [2] and in assay [3] were below 1 µM, below 1 µM and below 10000 nM, respectively.
Consider `CCn1cc(-c2cnc3ccn(CC4CCC(F)(F)CC4)c3c2)ccc1=O` [P-0517, 5-[1-[(4,4-difluorocyclohexyl)methyl]pyrrolo[3,2-b]pyridin-6-yl]-1-ethyl-pyridin-2-one], for which the values for the IC50 in assay [1], in assay [2] and in assay [3] were 1 to 10 µM, 1 to 10 µM and below 10000 nM, respectively.
On to `CC(C)n1cc(-c2cnc3ccn(CC4CCC(F)(F)CC4)c3c2)ccc1=O` [P-0518, 5-[1-[(4,4-difluorocyclohexyl)methyl]pyrrolo[3,2-b]pyridin-6-yl]-1-isopropyl-pyridin-2-one], for which the results for the IC50 in assay [1], in assay [2] and in assay [3] were 1 to 10 µM, 10 to 200 µM and below 10000 nM, respectively.
The matching figures for `Cc1noc(C)c1-c1cnc2c(-c3cnn(C)c3)cn([C@H](C)c3ccccn3)c2c1` [P-0519, 3,5-dimethyl-4-[3-(1-methylpyrazol-4-yl)-1-[(1R)-1-(2-pyridyl)ethyl]pyrrolo[3,2-b]pyridin-6-yl]isoxazole]: below 1 µM, below 1 µM and below 10000 nM.
As to `Cc1noc(C)c1-c1cnc2c(-c3ccc(N)nc3)cn(CC3(F)CCCCC3)c2c1` [P-0520, 5-[6-(3,5-dimethylisoxazol-4-yl)-1-[(1-fluorocyclohexyl)methyl]pyrrolo[3,2-b]pyridin-3-yl]pyridin-2-amine], the results for the IC50 in assay [1], in assay [2] and in assay [3] were below 1 µM, below 1 µM and below 10000 nM, respectively.
With `Cc1noc(C)c1-c1cnc2c(-c3ccc(NC(N)=O)cc3)cn(CC3(F)CCCCC3)c2c1` [P-0521, [4-[6-(3,5-dimethylisoxazol-4-yl)-1-[(1-fluorocyclohexyl)methyl]pyrrolo[3,2-b]pyridin-3-yl]phenyl]urea], the results for the 50% inhibitory concentration (IC50) in assay [1], in assay [2] and in assay [3] were below 1 µM, below 1 µM and below 10000 nM, respectively.
Consider `CNC(=O)Nc1ccc(-c2cn(CC3(F)CCCCC3)c3cc(-c4c(C)noc4C)cnc23)cc1` [P-0522, 1-[4-[6-(3,5-dimethylisoxazol-4-yl)-1-[(1-fluorocyclohexyl)methyl]pyrrolo[3,2-b]pyridin-3-yl]phenyl]-3-methyl-urea], for which the half-inhibitory concentration (IC50) in assay [1] was below 1 µM; in assay [2] it was below 1 µM; in assay [3] it was below 10000 nM.
On to `Cc1noc(C)c1-c1cnc2c(-c3ccc(O)cc3)cn(CC3(F)CCCCC3)c2c1` [P-0523, 4-[6-(3,5-dimethylisoxazol-4-yl)-1-[(1-fluorocyclohexyl)methyl]pyrrolo[3,2-b]pyridin-3-yl]phenol], for which the figures for the IC50 in assay [1], in assay [2] and in assay [3] were below 1 µM, below 1 µM and below 10000 nM, respectively.
With `Cc1noc(C)c1-c1cnc2c(-c3ccc(O)c(Cl)c3)cn(CC3(F)CCCCC3)c2c1` [P-0524], the IC50 in assay [1] is below 1 µM; in assay [2], below 1 µM; in assay [3], below 10000 nM.
For the molecule `Cc1ccc(-c2cn(CC3(F)CCCCC3)c3cc(-c4c(C)noc4C)cnc23)cc1C(=O)O` [P-0525, 5-[6-(3,5-dimethylisoxazol-4-yl)-1-[(1-fluorocyclohexyl)methyl]pyrrolo[3,2-b]pyridin-3-yl]-2-methyl-benzoic acid], the values for the half-maximal inhibitory concentration (IC50) in assay [1], in assay [2] and in assay [3] were below 1 µM, below 1 µM and below 10000 nM, respectively.
As for `Cc1noc(C)c1-c1cnc2c(-c3ccc(C(=O)OC(C)(C)C)cc3)cn(C(CC#N)C3CCCC3)c2c1` (stereo not drawn) [P-0526, tert-butyl 4-[1-(2-cyano-1-cyclopentyl-ethyl)-6-(3,5-dimethylisoxazol-4-yl)pyrrolo[3,2-b]pyridin-3-yl]benzoate], the IC50 was below 1 µM in assay [1], below 1 µM in assay [2] and below 10000 nM in assay [3].
On to `Cc1noc(C)c1-c1cnc2c(-c3ccc(C(=O)O)cc3)cn(C(CC#N)C3CCCC3)c2c1` (stereo not drawn) [P-0527, 4-[1-(2-cyano-1-cyclopentyl-ethyl)-6-(3,5-dimethylisoxazol-4-yl)pyrrolo[3,2-b]pyridin-3-yl]benzoic acid], for which the concentration for half-maximal inhibition (IC50) was below 1 µM in assay [1], below 1 µM in assay [2] and below 10000 nM in assay [3].
On to `Cc1noc(C)c1-c1cnc2c(I)cn(Cc3cccnn3)c2c1` [P-0528, 4-[3-iodo-1-(pyridazin-3-ylmethyl)pyrrolo[3,2-b]pyridin-6-yl]-3,5-dimethyl-isoxazole], for which the IC50 is below 1 µM in assay [1], below 1 µM in assay [2] and below 10000 nM in assay [3].
In the case of `COC(=O)CCc1ccc(-c2cn(CC3CCC(F)(F)CC3)c3cc(-c4c(C)noc4C)cnc23)cc1` [P-0529, methyl 3-[4-[1-[(4,4-difluorocyclohexyl)methyl]-6-(3,5-dimethylisoxazol-4-yl)pyrrolo[3,2-b]pyridin-3-yl]phenyl]propanoate], the IC50 in assay [1] was below 1 µM; in assay [2] it was below 1 µM; in assay [3], below 10000 nM.
In the case of `Cc1noc(C)c1-c1cnc2c(-c3ccc(CCC(=O)O)cc3)cn(CC3CCC(F)(F)CC3)c2c1` [P-0530, 3-[4-[1-[(4,4-difluorocyclohexyl)methyl]-6-(3,5-dimethylisoxazol-4-yl)pyrrolo[3,2-b]pyridin-3-yl]phenyl]propanoic acid], the concentration for half-maximal inhibition (IC50) was below 1 µM in assay [1], below 1 µM in assay [2] and below 10000 nM in assay [3].
With `Cc1noc(C)c1-c1cnc2c(-c3cnn(CC(F)(F)F)c3)cn(Cc3cccnn3)c2c1` [P-0531, 3,5-dimethyl-4-[1-(pyridazin-3-ylmethyl)-3-[1-(2,2,2-trifluoroethyl)pyrazin-4-yl]pyrrolo[3,2-b]pyridin-6-yl]isoxazole], the IC50 was below 1 µM in assay [1], below 1 µM in assay [2] and below 10000 nM in assay [3].
For the molecule `CNC(=O)c1ccc(-n2cc(CC3CCC(F)(F)CC3)c3cc(-c4c(C)noc4C)cnc32)nc1` [P-0532, 6-[3-[(4,4-difluorocyclohexyl)methyl]-5-(3,5-dimethylisoxazol-4-yl)pyrrolo[2,3-b]pyridin-1-yl]-N-methyl-pyridine-3-carboxamide], the IC50 is below 1 µM in assay [1], below 1 µM in assay [2] and below 10000 nM in assay [3].
`Cc1noc(C)c1-c1cnc2c(c1)c(CC1CCC(F)(F)CC1)cn2-c1ccc(C(=O)NC2CC2)cn1` [P-0533, N-cyclopropyl-6-[3-[(4,4-difluorocyclohexyl)methyl]-5-(3,5-dimethylisoxazol-4-yl)pyrrolo[2,3-b]pyridin-1-yl]pyridine-3-carboxamide]: the values for the concentration for half-maximal inhibition (IC50) in assay [1], in assay [2] and in assay [3] were below 1 µM, below 1 µM and below 10000 nM, respectively.
Take `CCOC(=O)c1ccc(-c2cn(CC3CCC(F)(F)CC3)c3cc(-c4c(C)noc4C)cnc23)cc1Cl` [P-0534, ethyl 2-chloro-4-[1-[(4,4-difluorocyclohexyl)methyl]-6-(3,5-dimethylisoxazol-4-yl)pyrrolo[3,2-b]pyridin-3-yl]benzoate]: the IC50 in assay [1] is below 1 µM; in assay [2], 1 to 10 µM; in assay [3], below 10000 nM.
Consider `Cc1noc(C)c1-c1cnc2c(-c3ccc(C(=O)O)c(Cl)c3)cn(CC3CCC(F)(F)CC3)c2c1` [P-0535, 2-chloro-4-[1-[(4,4-difluorocyclohexyl)methyl]-6-(3,5-dimethylisoxazol-4-yl)pyrrolo[3,2-b]pyridin-3-yl]benzoic acid], for which the half-maximal inhibitory concentration (IC50) was below 1 µM in assay [1], below 1 µM in assay [2] and below 10000 nM in assay [3].
On to `Cc1noc(C)c1-c1cnc2c(-c3ccc(C(=O)NC4CC4)nc3)cn(CC3CCC(F)(F)CC3)c2c1` [P-0536, N-cyclopropyl-5-[1-[(4,4-difluorocyclohexyl)methyl]-6-(3,5-dimethylisoxazol-4-yl)pyrrolo[3,2-b]pyridin-3-yl]pyridine-2-carboxamide], for which the IC50 in assay [1] was below 1 µM; in assay [2], below 1 µM; in assay [3], below 10000 nM.

The IC50 is the concentration that inhibits the measured activity by half.
